Entries after “also recorded” stand apart in the source; their conditions may differ. Where two headings read alike, the source gives them in different places.
Tests used:
[1] = tested on: α-glucosidase; conditions: cited from earlier work; for type of inhibition (inhibition kinetic assays): ref 19
[2] = biological target: T1, α-glucosidase (Saccharomyces cerevisiae, UniProt P38158); experiment: Inactivation kinetics, time course of α-glucosidase activity; type: biochemical; conditions: enzyme 0.075 µM, pNPG 2 mM
T1 construct: purchased Merck KGaA, Darmstadt, Germany
T1 sequence (P38158 whole entry): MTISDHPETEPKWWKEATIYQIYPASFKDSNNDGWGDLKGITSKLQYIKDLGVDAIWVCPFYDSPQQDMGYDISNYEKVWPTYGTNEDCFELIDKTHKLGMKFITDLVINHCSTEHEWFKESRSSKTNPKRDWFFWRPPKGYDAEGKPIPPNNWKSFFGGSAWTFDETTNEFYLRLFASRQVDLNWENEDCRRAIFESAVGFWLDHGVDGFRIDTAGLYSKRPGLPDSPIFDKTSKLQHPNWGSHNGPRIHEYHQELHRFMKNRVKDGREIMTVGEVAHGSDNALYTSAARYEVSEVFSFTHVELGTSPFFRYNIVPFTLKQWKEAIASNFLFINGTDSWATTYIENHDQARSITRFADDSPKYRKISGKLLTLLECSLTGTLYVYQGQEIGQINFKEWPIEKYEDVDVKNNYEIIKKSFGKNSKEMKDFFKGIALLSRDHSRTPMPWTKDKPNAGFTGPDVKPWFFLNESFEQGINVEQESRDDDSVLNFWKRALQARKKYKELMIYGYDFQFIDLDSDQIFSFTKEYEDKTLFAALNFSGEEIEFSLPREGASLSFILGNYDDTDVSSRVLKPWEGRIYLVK
Method: The enzyme and substrate concentrations were 0.075 µM and 2 mM, respectively.

[3] = biological target: T1, α-glucosidase; experiment: Non-radiation energy transfer (Förster resonance energy transfer) distance; type: binding; conditions: room temperature, pH 6.8, 0.35 µM
Method: The distance between magnolol and α-glucosidase was calculated according to the theory of Förster resonance energy transfer. To calculate the distance (r) between the donor and the acceptor, the emission wavelength of α-glucosidase was overlapped with the absorption band of the inhibitor. The fluorescence spectrum and the UV absorption spectrum of the inhibitor were collected in the wavelength range of 300–500 nm, at room temperature, pH 6.8, and at a concentration of 0.35 µM.

[4] = biological target: T1, α-glucosidase; experiment: Kinetic analysis of yeast α-glucosidase inhibition (Michaelis–Menten and Lineweaver–Burk plots); type: biochemical; conditions: for type of inhibition: Michaelis–Menten and Lineweaver–Burk plots; for Kcat of α-glucosidase: 0.075 µM α-glucosidase; for Vmax of α-glucosidase: converted using the Lambert–Beer relationship
Method: The type of enzyme inhibition exerted by inhibitors was evaluated from kinetic studies using different substrate concentrations (0.25–2.5 mM pNPG) applying Michaelis–Menten and Lineweaver–Burk plots. Inhibition constants (Ki) were determined by plots of the Y-intercept of the Lineweaver–Burk plot vs. inhibitor concentration.

[5] = biological target: T1, α-glucosidase; experiment: Synchronous fluorescence spectra; conditions: pH 6.8, 298 K
Text: The application of this method allows the identification of conformational changes in proteins according to the spectroscopic behavior of the tyrosine and tryptophan residues. Synchronous fluorescence spectra were collected in the emission range of 260–320 nm. The difference between excitation and emission wavelength (Δλ) was established at 15 nm (tyrosine residues) or at 60 nm (tryptophan residues).

[6] = biological target: T1, α-glucosidase; experiment: Yeast α-glucosidase inhibitory assay (pNPG substrate, absorbance 405 nm); type: biochemical; conditions: for IC50: 2 mM pNPG
Method: α-Glucosidase inhibitory activity was determined according to a previous method. Briefly, 0.1 mM PBS (pH 6.8) was used to dissolve α-glucosidase and pNPG. In detail, 80 μL of PBS or 80 μL of test sample were added to 96-well plates. Successively, 20 μL of enzyme (0.025–0.125 µM) were added to each well. Magnolol (10–100 μM) and luteolin (5–50 μM) were prepared in DMSO (<1% v/v). […] Each sample was incubated with α-glucosidase for 10 min at 37 °C. The reaction started by adding 200 μL of pNPG (2 mM). The absorbance values were detected at 405 nm for 60 min, using a PerkinElmer Victor Nivo microplate spectrophotometer (Waltham, MA, USA). The α-glucosidase activity in the absence of inhibitors was defined as 100%. The half-maximal inhibitory concentration (IC50) was estimated by plot of relative enzymatic activity vs. inhibitor concentration.

[7] = biological target: T1, α-glucosidase; experiment: Fluorescence quenching analysis and thermodynamic parameters; type: binding; conditions: for Ksv (Stern–Volmer quenching constant): pH 6.8, α-glucosidase 0.35 µM; for Kd: read-out: Ka (binding constant) (converted)
Method: The interaction of inhibitors with α-glucosidase was studied using the fluorescence quenching method. […] Measurements were made in the emission range of 300–450 nm, with an excitation of 280 nm, after 10 min of stabilization. The fluorescent spectra of α-glucosidase (0.35 µM) and each inhibitor (0–1.0 µM) were carried out at three different temperatures (298, 304, and 310 K) and the bandwidths were set at 5 nm for both emission and excitation slits. For each sample, three fluorescence spectra were acquired, and the blank was subtracted. The compound quenching mechanism was assessed using the Stern–Volmer equation: F0 / F = 1 + Ksv[Q] = 1 + Kq^.τo[Q], where F0 and F are the fluorescence measure in absence and in presence of different concentrations of quencher, respectively; Ksv is the Stern–Volmer quenching constant; Kq is the coefficient of quencher rate coefficient; τ0 is the life time of the excited state; and [Q] is the concentration of the quencher.
Further elaboration of the equilibrium within the free and bound molecules can be achieved through the analysis of the fluorescence emission data utilizing the following equation: log (F0 − F) / F = log Ka + n log [Q], which obtains the binding constant (Ka) and the number of binding sites per protein (n) for the enzyme-inhibitor system.
Thermodynamic spontaneity is an important factor in the study of protein-ligand interaction. A system tends not only toward a lower energy state (enthalpy, ΔH), but also according to a state of disorder (entropy, ΔS). Thermodynamic parameters were obtained according to the Van ’t Hoff equation and the plot of “log Ka vs. 1/T”. The trade-off between enthalpy (ΔH°) and entropy (ΔS°) is used to obtain the standard free energy variation (ΔG°).

[8] = 298–310 K, Van ’t Hoff equation

For `O=c1c(O)c(-c2ccc(O)c(O)c2)oc2cc(O)cc(O)c12` [compound 2, quercetin], the “type of inhibition (inhibition kinetic assays)” value [1] is given as “non-competitive inhibitors”.

In the case of `C=CCc1ccc(O)c(-c2cc(CC=C)ccc2O)c1` [Magnolol, 5,5′-diallyl-biphenyl-2,2′-diol], the “Inactivation rate constant K” value ([2]; inhibitor 10 µM) is reported as 2.78 ± 0.05 10^−4 s^−1, the “Inactivation rate constant K” value ([2]; inhibitor 25 µM) is reported as 2.81 ± 0.03 10^−4 s^−1 and the “Inactivation rate constant K” value ([2]; inhibitor 50 µM) is reported as 2.81 ± 0.01 10^−4 s^−1. For the same molecule, the “Inactivation rate constant K” value ([2]; inhibitor 100 µM) was 2.85 ± 0.08 10^−4 s^−1, the “calculated distance between inhibitor and α-glucosidase” value [3] was 2.06 nm and the type of inhibition [4] was “mixed-type antagonism”. The type of inhibition ([4]; listed as magnolol) was “mixed-type inhibition; also recorded: mixed-type inhibitor; also recorded: reversible mixed-type interaction”, the “Kcat of α-glucosidase” value ([4]; inhibitor 10 µM) was 3.59 ± 0.17 s⁻¹ and the “Vmax of α-glucosidase” value ([4]; inhibitor 10 µM) was 16.2 ± 0.80 µM/min. The “Kcat of α-glucosidase” value ([4]; inhibitor 25 µM) was 3.29 ± 0.15 s⁻¹, the “Vmax of α-glucosidase” value ([4]; inhibitor 25 µM) was 14.8 ± 0.70 µM/min and the “Kcat of α-glucosidase” value ([4]; inhibitor 50 µM) was 2.86 ± 0.13 s⁻¹. For the same molecule, the “Vmax of α-glucosidase” value ([4]; inhibitor 50 µM) was 12.9 ± 0.60 µM/min, the “Kcat of α-glucosidase” value ([4]; inhibitor 100 µM) was 2.22 ± 0.29 s⁻¹ and the “Vmax of α-glucosidase” value ([4]; inhibitor 100 µM) was 10.0 ± 1.30 µM/min. For the same molecule, the “shift of synchronous fluorescence maximum” value ([5]; ∆λ = 15 nm (tyrosine residues)) was “red shift from 286 to 290”, the “shift of synchronous fluorescence maximum” value ([5]; ∆λ = 60 nm (tryptophan residues)) was “no modification” and the IC50 ([6]; IC50, α-glucosidase 0.025 × 10^−6 M) was 28.3 ± 10.7 µM. The IC50 ([6]; IC50, α-glucosidase 0.05 × 10^−6 M) was 28.5 ± 11 µM, the IC50 ([6]; IC50, α-glucosidase 0.075 × 10^−6 M) was 32.6 ± 10.5 µM and the IC50 ([6]; IC50, α-glucosidase 0.125 × 10^−6 M) was 35.5 ± 10.2 µM. The reversibility of inhibition ([6]; plots v vs. [α-glucosidase] at different inhibitor concentrations) was “reversible inhibition”, the IC50 ([6]; −Log IC50, α-glucosidase 0.05 × 10^−6 M) was 28.2 µM and the “Kq (bimolecular quenching constant)” value ([7]; 298 K) was 3.90 ± 0.007 10^13 M^−1 s^−1. For the same molecule, the “n (number of binding sites)” value ([7]; 298 K) was 0.39, the “Ksv (Stern–Volmer quenching constant)” value ([7]; 298 K) was 3.89 ± 0.01 10^5 M^−1 and the Kd ([7]; 298 K) was 3.37 µM. For the same molecule, the “ΔH° (enthalpy change)” value [7, 8] was 9.376 kcal/mol, the “∆S° (entropy change)” value [7, 8] was 121.83 J mol^−1K^−1 and the “Kq (bimolecular quenching constant)” value ([7]; 304 K) was 4.22 ± 0.011 10^13 M^−1 s^−1. The “n (number of binding sites)” value ([7]; 304 K) was 0.42, the “ΔG° (free energy change)” value ([7]; 304 K, Van ’t Hoff equation) was -0.523 kcal/mol and the “Ksv (Stern–Volmer quenching constant)” value ([7]; 304 K) was 4.22 ± 0.01 10^5 M^−1. The Kd ([7]; 304 K) was 2.2 µM, the “Kq (bimolecular quenching constant)” value ([7]; 310 K) was 5.30 ± 0.022 10^13 M^−1 s^−1 and the “n (number of binding sites)” value ([7]; 310 K) was 0.65. The “ΔG° (free energy change)” value ([7]; 310 K, Van ’t Hoff equation) was -0.349 kcal/mol, the “Ksv (Stern–Volmer quenching constant)” value ([7]; 310 K) was 5.30 ± 0.02 10^5 M^−1 and the Kd ([7]; 310 K) was 1.82 µM. The fluorescence quenching mechanism ([7]; based on Ksv and Kq values) was “static-dynamic quenching process” and the “number of binding sites” value ([7]; no temperature stated) was about 0.6.

For `O=c1c(O)c(-c2ccc(O)cc2)oc2cc(O)cc(O)c12` [compound 1, kaempferol], the “type of inhibition (inhibition kinetic assays)” value [1] is given as “non-competitive inhibitors”.

For `O=C(OC1C(O)C(CO)OC(Oc2c(-c3ccc(O)c(O)c3)oc3cc(O)cc(O)c3c2=O)C1O)c1cc(O)c(O)c(O)c1` (stereo not drawn) [compound 3], the “type of inhibition (inhibition kinetic assays)” value [1] is given as “non-competitive” and the IC50 ([1]; studied with 0.5 µM of α-glucosidase ref 19) is given as 0.97 µM.

Reference: article PMC8880268, “Magnolol and Luteolin Inhibition of α-Glucosidase Activity: Kinetics and Type of Interaction Detected by In Vitro and In Silico Studies” (Pharmaceuticals, 2022)
